Among the data in ChEMBL document CHEMBL4814047, “Design, synthesis and biological activity of N-(amino)piperazine-containing benzothiazinones against Mycobacterium tuberculosis” (Eur J Med Chem, 2021) are MIC and selectivity ratio values, retold here.

The subject of data set [1] is Mycobacterium tuberculosis. The data set can be described thus: Antimycobacterial activity against multidrug resistance Mycobacterium tuberculosis 16995 clinical isolate incubated for 7 days by microplate alamar blue assay. The data set is classed as functional. The conditions noted are these: Mycobacterium tuberculosis, 16995, 168 h; time 7 day. In general terms: Resazurin is reduced to fluorescent resorufin, in cell work by metabolically active cells.

In data set [2] the test system is Mycobacterium tuberculosis. The data set can be described thus: Antimycobacterial activity against multidrug resistance Mycobacterium tuberculosis 16833 clinical isolate incubated for 7 days by microplate alamar blue assay. The data set is classed as functional. To be noted: Mycobacterium tuberculosis, 16833, 168 h; time 7 day.
A short description of data set [3]: Selectivity index, ratio of CC50 for African green monkey Vero cells to MIC for multidrug resistance Mycobacterium tuberculosis 16995 clinical isolate. The format is toxicity. To be noted: read-out: Selectivity Index.

Each structure is given as a SMILES string. ≈ marks a conversion by molar mass, not a printed value. Some results are limits rather than exact numbers.

With `O=c1nc(N2CCN(/N=C/c3ccc(OC(F)(F)F)cc3)CC2)sc2c([N+](=O)[O-])cc(C(F)(F)F)cc12`, the MIC in data set [1] and in data set [2] was under 0.016 µg/mL in each case. For the same compound, the selectivity ratio in data set [3] is over 4000.
On to `CC(NN1CCN(c2nc(=O)c3cc(C(F)(F)F)cc([N+](=O)[O-])c3s2)CC1)c1ccc(OC(F)(F)F)cc1` (configuration not stated), for which the MIC in data set [1] worked out at 0.0177 µg/mL (≈ 0.0314 µM); in data set [2], 0.0196 µg/mL (≈ 0.0348 µM). Further, the selectivity ratio in data set [3] was over 3620.
For `O=c1nc(N2CCN(Nc3ccc(C(F)(F)F)cc3)CC2)sc2c([N+](=O)[O-])cc(C(F)(F)F)cc12`, in that order: under 0.016 µg/mL, under 0.016 µg/mL and over 4000.
In the same order, the values of `O=c1nc(N2CCN(NCc3ccc(Br)cc3)CC2)sc2c([N+](=O)[O-])cc(C(F)(F)F)cc12` are under 0.016 µg/mL, under 0.016 µg/mL and over 4000.
As for `O=c1nc(N2CCN(NCc3ccc(F)cc3)CC2)sc2c([N+](=O)[O-])cc(C(F)(F)F)cc12`, the minimum inhibitory concentration (MIC) in data set [1] and in data set [2] was under 0.016 µg/mL in each case. In addition, in data set [3], the selectivity ratio was over 4000.
As to `COc1ccc(CNN2CCN(c3nc(=O)c4cc(C(F)(F)F)cc([N+](=O)[O-])c4s3)CC2)cc1`, the MIC in data set [1] was 0.0271 µg/mL (≈ 0.0547 µM); in data set [2], under 0.016 µg/mL. The selectivity ratio in data set [3] was over 2360.
For `CC(C)CN(CC(C)C)N1CCN(c2nc(=O)c3cc(C(F)(F)F)cc([N+](=O)[O-])c3s2)CC1`, in that order: under 0.016 µg/mL, under 0.016 µg/mL and over 4000.
For `O=c1nc(N2CCN(NCc3ccc(OC(F)(F)F)cc3)CC2)sc2c([N+](=O)[O-])cc(C(F)(F)F)cc12`, in that order: under 0.016 µg/mL, under 0.016 µg/mL and over 4000.
In the same order, the values of `O=c1nc(N2CCN(Nc3ccc(OC(F)(F)F)cc3)CC2)sc2c([N+](=O)[O-])cc(C(F)(F)F)cc12` are under 0.016 µg/mL, under 0.016 µg/mL and over 4000.
In the case of `O=c1nc(N2CCN(NCc3ccc(Cl)cc3)CC2)sc2c([N+](=O)[O-])cc(C(F)(F)F)cc12`, the minimal inhibitory concentration (MIC) in data set [1] and in data set [2] was under 0.016 µg/mL each time. Also, the selectivity ratio in data set [3] was over 4000.
Take `Cc1cccc(F)c1CNN1CCN(c2nc(=O)c3cc(C(F)(F)F)cc([N+](=O)[O-])c3s2)CC1`: the MIC in data set [1] was 0.0163 µg/mL (≈ 0.0328 µM); in data set [2], 0.0152 µg/mL (≈ 0.0306 µM). Besides, the selectivity ratio in data set [3] was over 3930.
In the same order, the values of `CN(c1ccc(OC(F)(F)F)cc1)N1CCN(c2nc(=O)c3cc(C(F)(F)F)cc([N+](=O)[O-])c3s2)CC1` are under 0.016 µg/mL, under 0.016 µg/mL and over 4000.
For `O=c1nc(N2CCN(NC3CCCCC3)CC2)sc2c([N+](=O)[O-])cc(C(F)(F)F)cc12`, in that order: under 0.016 µg/mL, under 0.016 µg/mL and over 4000.
With `CON=C1CCC(N(C)N2CCN(c3nc(=O)c4cc(C(F)(F)F)cc([N+](=O)[O-])c4s3)CC2)CC1` (configuration not stated), the minimum inhibitory concentration (MIC) in data set [1] and in data set [2] was under 0.016 µg/mL throughout. For the same compound, in data set [3], the selectivity ratio was over 4000.
In the case of `Cc1ccc(CNN2CCN(c3nc(=O)c4cc(C(F)(F)F)cc([N+](=O)[O-])c4s3)CC2)cc1`, the MIC in data set [1] and in data set [2] was under 0.016 µg/mL in each case. Also, the selectivity ratio in data set [3] is over 4000.
Consider `CN(CC1CCCCC1)N1CCN(c2nc(=O)c3cc(C(F)(F)F)cc([N+](=O)[O-])c3s2)CC1`, for which the minimum inhibitory concentration (MIC) in data set [1] and in data set [2] was under 0.016 µg/mL throughout. Also, in data set [3], the selectivity ratio was over 4000.
As to `O=c1nc(N2CCN(NCC3CCCC3)CC2)sc2c([N+](=O)[O-])cc(C(F)(F)F)cc12`, the MIC in data set [1] and in data set [2] was under 0.016 µg/mL throughout. The selectivity ratio in data set [3] is over 4000.
As for `O=c1nc(N2CCN(NCc3cccc(C(F)(F)F)c3)CC2)sc2c([N+](=O)[O-])cc(C(F)(F)F)cc12`, the MIC in data set [1] and in data set [2] was under 0.016 µg/mL throughout. Besides, the selectivity ratio in data set [3] is over 4000.
As for `CC(c1ccc(OC(F)(F)F)cc1)N(C)N1CCN(c2nc(=O)c3cc(C(F)(F)F)cc([N+](=O)[O-])c3s2)CC1` (configuration not stated), the MIC in data set [1] and in data set [2] was under 0.016 µg/mL in each case. Also, the selectivity ratio in data set [3] is over 4000.
As to `O=c1nc(N2CCN(NCC3CCCCC3)CC2)sc2c([N+](=O)[O-])cc(C(F)(F)F)cc12`, the MIC in data set [1] and in data set [2] was under 0.016 µg/mL throughout. Further, the selectivity ratio in data set [3] is over 1830.
As to `C/C(=N\N1CCN(c2nc(=O)c3cc(C(F)(F)F)cc([N+](=O)[O-])c3s2)CC1)c1ccc(OC(F)(F)F)cc1`, the minimal inhibitory concentration (MIC) in data set [1] and in data set [2] was under 0.016 µg/mL each time. For the same compound, the selectivity ratio in data set [3] was over 4000.
`O=c1nc(N2CCN(NCc3ccc(C(F)(F)F)cc3)CC2)sc2c([N+](=O)[O-])cc(C(F)(F)F)cc12`: the minimal inhibitory concentration (MIC) in data set [1] and in data set [2] was under 0.016 µg/mL throughout. Also, the selectivity ratio in data set [3] is over 4000.
For `O=c1nc(N2CCN(NCc3cc(F)cc(F)c3)CC2)sc2c([N+](=O)[O-])cc(C(F)(F)F)cc12`, the MIC in data set [1] and in data set [2] was under 0.016 µg/mL throughout. In data set [3], the selectivity ratio is over 4000.
`O=c1nc(N2CCN(NCCC3CCCCC3)CC2)sc2c([N+](=O)[O-])cc(C(F)(F)F)cc12`: the values for the MIC in data set [1] and in data set [2] were 0.0294 µg/mL (≈ 0.0606 µM) and 0.0357 µg/mL (≈ 0.0735 µM), respectively. In data set [3], the selectivity ratio is over 2180.
For `CC(C)(C)c1ccc(CNN2CCN(c3nc(=O)c4cc(C(F)(F)F)cc([N+](=O)[O-])c4s3)CC2)cc1`, in that order: under 0.016 µg/mL, under 0.016 µg/mL and over 4000.
`NNC(=O)c1ccncc1` [ISONIAZID]: the MIC in data set [1] and in data set [2] was over 10 µg/mL each time.
With `O=c1nc(N2CCN(CC3CCCCC3)CC2)sc2c([N+](=O)[O-])cc(C(F)(F)F)cc12` [MACOZINONE], the minimum inhibitory concentration (MIC) in data set [1] and in data set [2] was under 0.016 µg/mL in each case. In addition, the selectivity ratio in data set [3] was over 4000.
For `CO[C@H]1/C=C/O[C@@]2(C)Oc3c(C)c(O)c4c(O)c(c(/C=N/N5CCN(C)CC5)c(O)c4c3C2=O)NC(=O)/C(C)=C\C=C\[C@H](C)[C@H](O)[C@@H](C)[C@@H](O)[C@@H](C)[C@H](OC(C)=O)[C@@H]1C` [RIFAMPIN], the MIC in data set [1] and in data set [2] was over 10 µg/mL throughout.

The term MIC denotes the least concentration at which growth counts as inhibited.
